Key:
SK-MEL-28 = assay: Proliferation of SK-MEL-28 melanoma cells alone or co-cultured with stromal cell lines, PLX4720 with or without Crizotinib (Table 5); type: cell-based, human; conditions: DMSO (no Crizotinib)
Excerpt: (§1) The DLD-1 cells do harbor the BRAF activating mutation V600E but are not sensitive at all to BRAF inhibition. They actually grow faster under BRAFi.
(§2) Proliferation was quantified after 7 days and normalized to non-treated cells. Bars represent standard error between replicates (n=3).
(§3) The propensity of tumors to develop resistance to a wide range of chemotherapy drugs imposes a critical hurdle to the treatment of most types of cancers. […] An optimized high-throughput screening system was used to explore the prevalence and significance of stromal cell-mediated chemoresistance in solid tumors. Forty-six GFP-labeled human cancer cell lines (Table 1) were cultured on 384-well plates either alone or co-cultured with each one of 23 human stromal cell lines (Table 3). The effects of a diverse range of widely used chemotherapy drugs (Table 2) on the proliferation of the single- or co-cultured cancer cell lines were assessed through GFP readings and through fluorescence microscopy.

WiDr = assay: Sensitivity of colorectal cancer cell line to PLX4720 with or without stromal cells (FIG. 2B); type: cell-based, human; conditions: colorectal cancer cell lines represented by WiDr
Excerpt: The propensity of tumors to develop resistance to a wide range of chemotherapy drugs imposes a critical hurdle to the treatment of most types of cancers. While the role of the cellular microenvironment in tumor progression and metastasis has been increasingly studied in recent years, its effects on drug resistance are still underappreciated and poorly understood. An optimized high-throughput screening system was used to explore the prevalence and significance of stromal cell-mediated chemoresistance in solid tumors. Forty-six GFP-labeled human cancer cell lines (Table 1) were cultured on 384-well plates either alone or co-cultured with each one of 23 human stromal cell lines (Table 3). The effects of a diverse range of widely used chemotherapy drugs (Table 2) on the proliferation of the single- or co-cultured cancer cell lines were assessed through GFP readings and through fluorescence microscopy. Stroma-mediated primary chemoresistance was clearly detected across most cancer cell lines and chemotherapy drugs (FIGS. 1A and 1B, Tables 3 and 4). In most cases, only a small subset of the stromal cells could render a specific cancer-cell line more resistant to a specific drug, and this subset was usually the same across cancer cell lines from the same origin (FIGS. 1-4). […]

[1] = tested on: V600E B-RAF melanoma cell lines; conditions: pre-clinical trials; cited from earlier work
SK-MEL-5 = assay: Proliferation of SK-MEL-5 melanoma cells alone or co-cultured with stromal cell lines, PLX4720 with or without Crizotinib (Table 5); type: cell-based, human; conditions: DMSO (no Crizotinib)
Excerpt: as §1, §2, §3

G361 = assay: Proliferation of G361 melanoma cells alone or co-cultured with stromal cell lines, PLX4720 with or without Crizotinib (Table 5); type: cell-based, human; conditions: for normalized proliferation: G361, PLX4720 - 2 uM, DMSO (no Crizotinib)
Excerpt: as §1, §2, §3

## CCCS(=O)(=O)Nc1ccc(F)c(C(=O)c2c[nH]c3ncc(Cl)cc23)c1F [PLX4720]
SK-MEL-28; 1069sk, PLX4720 - 2 uM
  normalized proliferation: 0.1
SK-MEL-28; HS-5, PLX4720 - 2 uM
  normalized proliferation: 0.1
SK-MEL-28; LL86, PLX4720 - 2 uM
  normalized proliferation: 0.3
SK-MEL-28; No Fibro, PLX4720 - 2 uM
  normalized proliferation: 0.1
SK-MEL-28; Wi-38, PLX4720 - 2 uM
  normalized proliferation: 0.4
WiDr
  sensitivity to BRAFi: largely not sensitive
[1]
  sensitivity of V600E B-RAF melanoma cell lines: extremely sensitive
SK-MEL-5; 1069sk, PLX4720 - 2 uM
  normalized proliferation: 0.4
SK-MEL-5; HS-5, PLX4720 - 2 uM
  normalized proliferation: 0.5
SK-MEL-5; LL86, PLX4720 - 2 uM
  normalized proliferation: 0.8
SK-MEL-5; No Fibro, PLX4720 - 2 uM
  normalized proliferation: 0.3
SK-MEL-5; Wi-38, PLX4720 - 2 uM
  normalized proliferation: 0.6
G361; 1069sk
  normalized proliferation: 0.1
G361; HS-5
  normalized proliferation: 0.2
G361; LL86
  normalized proliferation: 0.5
G361; No Fibro
  normalized proliferation: 0.1
G361; Wi-38
  normalized proliferation: 0.4
G361; melanoma cell lines represented by G-361, FIG. 2B
  sensitivity to the BRAF inhibitor PLX4720: sensitive

— patent US20140348819A1, “Methods of Treating Cancer” (Dana-Farber Cancer Institute, Inc., priority 2011, published 2014)
